# From patent publication US20200345058A1, “Nicotine Oxalic Acid Formulations” (priority 2017, published 2020)
# Settings: 0.5% (w/w) nicotine or higher and 0.9% (w/w) tartaric acid or higher, ambient conditions
# Text: As used herein, weight percentage (w/w) refers to the weight of the individual component over the weight of the total formulation.
structure (smiles),measurement,value
CN1CCCC1c1cccnc1.O=C(O)C(O)C(O)C(=O)O (stereo not shown) [nicotine bitartrate],"solubility in propylene glycol (PG), vegetable glycerin (VG) or any mixture (in words)",will not produce a solution
